Test results published in PMC7700423, “Differential Effects of 1α,25-Dihydroxyvitamin D3 on the Expressions and Functions of Hepatic CYP and UGT Enzymes and Its Pharmacokinetic Consequences In Vivo” (Pharmaceutics, 2020).

Legend:
Type in all cases: in vivo, rat
hepatic Ugt2b1 mRNA = experiment: Hepatic mRNA expression by qPCR; conditions: 2.56 nmol/kg/day i.p. for 4 days, n = 4-5
Experimental: (§1) Male Sprague-Dawley (SD) rats (8 weeks, 260–280 g) were purchased from Nara Biotech Co. (Seoul, Korea). […] The dosing solution for the control group was prepared but the 1,25(OH)2D3 was omitted. […] On the fifth day, rats were used for pharmacokinetic study.
(§2) Collected livers were frozen immediately with liquid nitrogen and stored at −80 °C. Trizol reagent in RNAiso Plus (Takara Bio, Inc., Shiga, Japan) was used to extract RNA from 100-mg tissue homogenates according to the manufacturer’s protocol. After purities and total RNA concentrations extracted from liver samples were determined at a wavelength of 260/280 nm with a Nanodrop 2000c spectrophotometer (Thermo Scientific, Waltham, MA, USA), synthesis of cDNA was processed from 1 μg of total RNA using the following conditions: incubation at 50 °C for 1 h, inactivation at 95 °C for 5 min, and cooling to 4 °C. The synthesized cDNA was then subjected to qPCR assays using SYBR® Premix Ex TagTM on Stratagene Mx3005P (Agilent Technologies, Boblingen, Germany) using the following conditions: 95 °C for 10 min and 40 cycles of 95 °C for 15 s and 55 °C for 30 s. A “Comparative Quantitation” mode was selected, and fold expressions were calculated using the delta-delta method 2^−(△△Ct). GAPDH was used as the internal reference gene for normalization. The forward and reverse primers used for qPCR analysis are listed in Supplementary Table S1 [2, 25, 28, 29].

hepatic Cyp1a2 mRNA = experiment: Hepatic mRNA expression by qPCR; conditions: 2.56 nmol/kg/day i.p. for 4 days, n = 4-5
Experimental: as §1, §2

hepatic Ugt1a1 mRNA = experiment: Hepatic mRNA expression by qPCR; conditions: 2.56 nmol/kg/day i.p. for 4 days, n = 4-5
Experimental: as §1, §2

hepatic Cyp2b1 mRNA = experiment: Hepatic mRNA expression by qPCR; conditions: 2.56 nmol/kg/day i.p. for 4 days, n = 4-5, p = 0.006
Experimental: as §1, §2

hepatic Ugt1a6 mRNA = experiment: Hepatic mRNA expression by qPCR; conditions: 2.56 nmol/kg/day i.p. for 4 days, n = 4-5
Experimental: as §1, §2

hepatic Ugt2b3 mRNA = experiment: Hepatic mRNA expression by qPCR; conditions: 2.56 nmol/kg/day i.p. for 4 days, n = 4-5
Experimental: as §1, §2

hepatic Cyp2d2 mRNA = experiment: Hepatic mRNA expression by qPCR; conditions: 2.56 nmol/kg/day i.p. for 4 days, n = 4-5
Experimental: as §1, §2

hepatic Ugt1a7 mRNA = experiment: Hepatic mRNA expression by qPCR; conditions: 2.56 nmol/kg/day i.p. for 4 days, n = 4-5
Experimental: as §1, §2

hepatic Cyp2c11 mRNA = experiment: Hepatic mRNA expression by qPCR; conditions: 2.56 nmol/kg/day i.p. for 4 days, n = 4-5, p = 0.001
Experimental: as §1, §2

hepatic Ugt1a8 mRNA = experiment: Hepatic mRNA expression by qPCR; conditions: 2.56 nmol/kg/day i.p. for 4 days, n = 4-5
Experimental: as §1, §2

hepatic Cyp2c6 mRNA = experiment: Hepatic mRNA expression by qPCR; conditions: 2.56 nmol/kg/day i.p. for 4 days, n = 4-5
Experimental: as §1, §2

hepatic Cyp2b1 protein = experiment: Hepatic protein expression by Western blotting; conditions: 2.56 nmol/kg/day i.p. for 4 days, n = 5, p = 0.0006
Experimental: (§3) (Seoul, Korea). […] On the fifth day, rats were used for pharmacokinetic study. For protein extraction, the rat liver tissues were homogenized in RIPA buffer (#89900, ThermoFisher Scientific, Waltham, MA, USA) with protease/phosphatase inhibitors using a Diax 900 homogenizer. The homogenized liver samples were incubated in ice for 30 min (for complete lysis) with vortexing every 5 min, and then centrifuged at 14,000× g for 30 min. The supernatants were collected and diluted by 10 times. The protein levels were quantified using the BCA Protein Assay Kit (#23227, ThermoFisher Scientific, Waltham, MA, USA) with bovine serum albumin (BSA) standards. Total protein lysates were subjected to Western blot analysis. Lysates were mixed with 2X Laemmli buffer (Bio-Rad) supplemented with β-mercaptoethanol (Bio-Rad) and boiled for 5 min. […] Immunoblotting was performed with the following antibodies: rabbit CYP2C11 antibody (#ab3571, Abcam, Cambridge, UK), rabbit UGT1A6 antibody (#ab157476, Abcam, Cambridge, UK) and mouse CYP2B1/B2 antibody (#sc-53244, Santa Cruz Biotechnology, Dallas, TX, USA) and HRP-conjugated β-actin mouse antibody (Sigma; cat#A3854; 1:10,000). The following secondary antibodies were used: HRP-conjugated goat antibody to mouse IgG (Genetex; cat# GTX-213111-01, 1:5000), HRP-conjugated goat antibody to rabbit IgG (Genetex; cat# GTX-213110-01; 1:5000). Then, the bands were visualized via chemiluminescence (#34577, ThermoFisher Scientific, Waltham, MA, USA). Densitometric analysis of the bands was performed using ImageJ software (NIH; rsb.info.nih.gov/ij).

hepatic Cyp2c11 protein = experiment: Hepatic protein expression by Western blotting; conditions: 2.56 nmol/kg/day i.p. for 4 days, n = 5, p = 0.0001
Experimental: as §3

hepatic Cyp2b2 protein = experiment: Hepatic protein expression by Western blotting; conditions: 2.56 nmol/kg/day i.p. for 4 days, n = 5, p = 0.1728
Experimental: as §3

hepatic Ugt1a6 protein = experiment: Hepatic protein expression by Western blotting; conditions: 2.56 nmol/kg/day i.p. for 4 days, n = 5, p = 0.5192
Experimental: as §1

liver tissue = experiment: Liver histology (H&E) after 1,25(OH)2D3 treatment; conditions: H&E sections after four days of treatment
Experimental: as §1

[1] = Serum chemistry for liver function after 1,25(OH)2D3 treatment; conditions: fifth day after 2.56 nmol/kg/day i.p. for 4 days, n = 3
Experimental: Male Sprague-Dawley (SD) rats (8 weeks, 260–280 g) were purchased from Nara Biotech Co. (Seoul, Korea). Animals were maintained in cages under controlled conditions under a 12-h dark/light cycle with free access to food and tap water, acclimated for at least five days in the laboratory before experiments, and allocated to a control group or 1,25(OH)2D3-treated group. The 1,25(OH)2D3 dosing solution was prepared by diluting 1,25(OH)2D3 in ethanol with 5 mL of corn oil (2.56 nmol/mL of final concentration). The dosing solution for the control group was prepared but the 1,25(OH)2D3 was omitted. The dosing solutions were administered intraperitoneally to rats at a dose of 1 mL/kg/day (2.56 nmol/kg/day as 1,25(OH)2D3) over four consecutive days. On the fifth day, rats were used for pharmacokinetic study.
Rat serum was obtained from whole blood on the fifth day after the 1,25(OH)2D3 treatment. The assay of total protein, albumin, serum glutamic oxaloacetic transaminase (sGOT), and serum glutamic pyruvic transaminase (sGPT) was performed by Green Cross Reference Laboratory (Seoul, Korea).

**Q.** For `C=C1/C(=C\C=C2/CCC[C@]3(C)[C@@H]([C@H](C)CCCC(C)(C)O)CC[C@@H]23)C[C@@H](O)C[C@@H]1O` [1,25(OH)2D3, 1α,25-dihydroxyvitamin D3], which “mRNA expression of hepatic Ugt2b1 vs control rats” value (hepatic Ugt2b1 mRNA) is on record?
**A.** no significant differences

**Q.** What about the “mRNA expression of hepatic Cyp1a2 vs control rats” value (hepatic Cyp1a2 mRNA) of the same compound?
**A.** no significant differences

**Q.** And the “mRNA expression of hepatic Ugt1a1 vs control rats” value (hepatic Ugt1a1 mRNA)?
**A.** no significant differences

**Q.** What about the “mRNA expression of hepatic Cyp2b1 vs control rats” value (hepatic Cyp2b1 mRNA) of the same compound?
**A.** significantly lower

**Q.** What about the “mRNA expression of hepatic Ugt1a6 vs control rats” value (hepatic Ugt1a6 mRNA) of the same compound?
**A.** significantly lower

**Q.** What about the “mRNA expression of hepatic Ugt2b3 vs control rats” value (hepatic Ugt2b3 mRNA) of the same compound?
**A.** no significant differences

**Q.** What about the “mRNA expression of hepatic Cyp2d2 vs control rats” value (hepatic Cyp2d2 mRNA) of the same compound?
**A.** no significant differences

**Q.** What about the “mRNA expression of hepatic Ugt1a7 vs control rats” value (hepatic Ugt1a7 mRNA) of the same compound?
**A.** no significant differences

**Q.** And the “mRNA expression of hepatic Cyp2c11 vs control rats” value (hepatic Cyp2c11 mRNA)?
**A.** significantly lower

**Q.** And the “mRNA expression of hepatic Ugt1a8 vs control rats” value (hepatic Ugt1a8 mRNA)?
**A.** no significant differences

**Q.** What about the “mRNA expression of hepatic Cyp2c6 vs control rats” value (hepatic Cyp2c6 mRNA) of the same compound?
**A.** no significant differences

**Q.** And the “Hepatic Cyp2b1 protein expression vs control rats” value (hepatic Cyp2b1 protein)?
**A.** significantly decreased

**Q.** What about the “Hepatic Cyp2c11 protein level vs control rats” value (hepatic Cyp2c11 protein) of the same compound?
**A.** significantly lower

**Q.** What about the “Hepatic Cyp2b2 protein expression vs control rats” value (hepatic Cyp2b2 protein) of the same compound?
**A.** lower, but this difference is not significant

**Q.** And the “Hepatic Ugt1a6 protein expression vs control rats” value (hepatic Ugt1a6 protein)?
**A.** remained unchanged

**Q.** What about the “Damage to liver tissue (histology)” value (liver tissue) of the same compound?
**A.** no apparent evidence of damage to liver tissue

**Q.** What about the Albumin [1] of the same compound?
**A.** 3.97 ± 0.15 g/dL

**Q.** And the Total protein [1]?
**A.** 5.73 ± 0.25 g/dL

**Q.** And the sGOT [1]?
**A.** 158 ± 35 IU/L

**Q.** And the sGPT [1]?
**A.** 22.7 ± 3.2 IU/L
